The values that follow come from patent publication US5466712A, “Substituted n-aryl-1,2-diaminocyclobutene-3,4-diones” (American Home Products Corporation, priority 1994, dated 1995).

The test concerns Isolated Rat Bladder Strips. The experiment in a line: Inhibition of Contractions in Isolated Rat Bladder Strips (15 mM KCl-enhanced contractions). The following applies: 0.5 h, 30 min challenge; for inhibition at 30 µM: read-out: Inhibition of Force (%) at (x) μM; for IC50: concentration eliciting 50% inhibition of pre-drug contractile activity. The format is cell-based, Sprague-Dawley rats. The text has this: Smooth muscle relaxing activity of the compounds of this invention was established in accordance with standard pharmaceutically accepted test procedures in representative compounds as follows:
Sprague-Dawley rats (150-200 g) are rendered unconscious by CO2 asphyxiation and then euthanized by cervical dislocation. The bladder is removed into warm (37 deg. C.) physiological salt solution (PSS) of the following composition (mM): NaCl, 118.4; KCl, 4.7; […]; NaHCO3, 24.9; KH2 PO4, 1.2; glucose, 11.1; EDTA, 0.023; gassed with […]; pH 7.4. The bladder is opened and then cut into strips 1-2 mm in width and 7-10 mm in length. The strips are subsequently suspended in a 10 mL tissue bath under an initial resting tension of 1.5 g. The strips are held in place by two surgical clips one of which is attached to fixed hook while the other is attached to an isometric force transducer. […] The carbachol is then washed out and the tissue allowed to relax to its resting level of activity. Following 1 further 30 min period of recovery an additional 15 mM KCl are introduced into the tissue bath. This increase in KCl concentration results in a large increase in the amplitude of spontaneous contractions (and initiation of contractions in previously quiescent strips) superimposed upon a small increase in basal tone. Following stabilization of this enhanced level of contractile activity, incremental increases in the concentration of test compound or vehicle are introduced into the tissue bath. Contractile activity is measured for each compound or vehicle concentration during the last […] of a 30 min challenge.
Isometric force developed by the bladder strips is measured using a […] to elicit 50% inhibition of pre-drug contractile activity (IC50 concentration) is calculated from this concentration-response curve. The maximum percentage inhibition of contractile activity evoked by a test compound is also recorded for concentrations of test compound<or equal to 30 μM.

Consider `CC[C@H](Nc1c(Nc2ccc(C#N)cc2)c(=O)c1=O)c1ccccc1` [Example 11, 4-[3,4-Dioxo-2-((S)-1-phenyl-propylamino)-cyclobut-1-enylamino]-benzonitrile], for which the inhibition at 30 µM was 28%.

On to `C[C@H](Nc1c(Nc2ccc(C#N)cc2)c(=O)c1=O)c1ccccc1` [Example 5, 4-[3.4-Dioxo-2-((S)-1-phenyl-ethylamino)-cyclobut-1-enylamino]-benzonitrile], for which the inhibition at 30 µM amounted to 38%. For `C[C@@H](Nc1c(Nc2ccc(C#N)cc2)c(=O)c1=O)c1ccccc1` [Example 1, 4-[3,4-Dioxo-2-((R)-1-phenyl-ethylamino)-cyclobut-1-enylamino]-benzonitrile], the IC50 stood at 56 nM. In the case of `CC(C)(Nc1c(Nc2ccc(C#N)cc2)c(=O)c1=O)c1ccccc1` [Example 9, 4-[3,4-Dioxo-2-(1-methyl-1-phenyl-ethylamino)-cyclobut-1-enylamino]-benzonitrile], the inhibition at 30 µM was determined as 22%.

Take `C[C@@H](Nc1c(Nc2ccncc2)c(=O)c1=O)c1ccccc1` [Example 4, 3-((R)-1-Phenyl-ethylamino)-4-(pyridin-4-ylamino)-cyclobut-3-ene-1,2-dione]: the IC50 was determined as 2300 nM.

Broadly, the inhibition is the percentage by which the read-out fell short of the control. In general, IC50 refers to the concentration that inhibits the measured activity by half.
